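In this assay, cells in 96-well plates receive the compound at five concentrations for 48 hours. Endpoints are linearly interpolated between the surrounding concentrations. GI50 marks 50% less growth. TGI is the concentration that stops growth completely.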 Bounds are passed on as bounds.

Test systems include SNB-75 CNS; HL-60(TB) leukemia; SNB-19 CNS; BT-549 breast; SK-MEL-5 melanoma; NCI-H23 lung; OVCAR-4 ovarian; NCI-H522 lung; UACC-62 melanoma; OVCAR-5 ovarian.
Common to all, as to experiment: inhibition of tumour cell growth, NCI panel, 48 h

Regarding `COc1c2ccoc2nc2c(OC)c(OCC(O)C(C)(C)O)ccc12` (stereo not given), the TGI in the experiment with SNB-75 CNS, in the experiment with HL-60(TB) leukemia, in the experiment with SNB-19 CNS, in the experiment with BT-549 breast, with SK-MEL-5 melanoma and with NCI-H23 lung was over 100 µM in each case. Also, the TGI in the experiment with OVCAR-4 ovarian, with NCI-H522 lung, with UACC-62 melanoma and in the experiment on OVCAR-5 ovarian was over 100 µM each time.
For `COC1=CC(c2ccc[nH]2)=N/C1=C\c1[nH]c(C)c(C(=O)CCCCCCCCC(=O)O[C@H]2CC[C@H]3C4CCc5cc(O)ccc5C4CC[C@]23C)c1C` (stereo not given in full), the GI50 with SNB-75 CNS was 0.29 µM; with HL-60(TB) leukemia, 289 nM; in the experiment with SNB-19 CNS, 3.16 µM; with BT-549 breast, 0.618 µM; with SK-MEL-5 melanoma it was 0.139 µM; in the experiment with NCI-H23 lung it was 1.85 µM. For the same molecule, the GI50 was 0.343 µM in the experiment on OVCAR-4 ovarian, 0.277 µM with NCI-H522 lung, 182 nM in the experiment on UACC-62 melanoma and 1.24 µM in the experiment on OVCAR-5 ovarian. The TGI with SNB-75 CNS is 2.79 µM; in the experiment with HL-60(TB) leukemia it was over 50 µM; in the experiment with SNB-19 CNS it was over 50 µM; in the experiment on BT-549 breast, over 45.1 µM; in the experiment on SK-MEL-5 melanoma, 0.456 µM; in the experiment on NCI-H23 lung, over 50 µM. Further, the TGI was over 50 µM in the experiment with OVCAR-4 ovarian, over 33.9 µM in the experiment with NCI-H522 lung, 1.09 µM in the experiment with UACC-62 melanoma and over 50 µM with OVCAR-5 ovarian.
`COc1ccc2[nH]c(C(=O)N3CCN(C(=O)OCc4ccc5c(Cl)cc(Cl)c(O)c5n4)CC3)cc2c1`: the GI50 with SNB-75 CNS is 1.08 µM; with HL-60(TB) leukemia, 977 nM; with SNB-19 CNS, 1.54 µM; in the experiment with BT-549 breast, 1.04 µM; in the experiment on SK-MEL-5 melanoma, 1.66 µM; with NCI-H23 lung, 1.7 µM. In addition, the GI50 in the experiment with OVCAR-4 ovarian is 1.53 µM; in the experiment on NCI-H522 lung, 0.828 µM; in the experiment with UACC-62 melanoma, 1280 nM; in the experiment with OVCAR-5 ovarian, 1.61 µM. Further, the TGI in the experiment with SNB-75 CNS came to 2.4 µM; in the experiment on HL-60(TB) leukemia, 2.85 µM; in the experiment with SNB-19 CNS it was 2.87 µM; in the experiment with BT-549 breast it was 2.34 µM; with SK-MEL-5 melanoma, 3.03 µM; in the experiment with NCI-H23 lung, 3.47 µM. In addition, the TGI in the experiment on OVCAR-4 ovarian came to 3.07 µM; in the experiment on NCI-H522 lung, 2.35 µM; with UACC-62 melanoma it was 2.59 µM; with OVCAR-5 ovarian, 3.08 µM.
`CC1(C)CC(C)(C)c2cc(NC(=S)Nc3ccc([N+](=O)[O-])cc3)ccc2S1`: the GI50 in the experiment with SNB-75 CNS is 16.7 µM; in the experiment on HL-60(TB) leukemia, 30200 nM; in the experiment with SNB-19 CNS, 21 µM; in the experiment on BT-549 breast, 13.2 µM; in the experiment with SK-MEL-5 melanoma, 9.23 µM; with NCI-H23 lung it was 12.2 µM. Besides, the GI50 was 14.8 µM in the experiment on OVCAR-4 ovarian, 9.63 µM in the experiment on NCI-H522 lung, 10900 nM with UACC-62 melanoma and 14.2 µM in the experiment on OVCAR-5 ovarian. The TGI in the experiment on SNB-75 CNS is 48.7 µM; in the experiment on HL-60(TB) leukemia, over 85.3 µM; in the experiment with SNB-19 CNS, over 76.1 µM; in the experiment on BT-549 breast it was 28.2 µM; in the experiment with SK-MEL-5 melanoma it was 19.1 µM; in the experiment with NCI-H23 lung, 50.2 µM. Moreover, the TGI is 60.4 µM with OVCAR-4 ovarian, 22.1 µM in the experiment on NCI-H522 lung, 25 µM with UACC-62 melanoma and 49.3 µM with OVCAR-5 ovarian.
With `NCCO/C=C/C(N)C(=O)O` (stereo not given), the TGI in the experiment on SNB-75 CNS, with HL-60(TB) leukemia, in the experiment on SNB-19 CNS, in the experiment with BT-549 breast, with SK-MEL-5 melanoma and in the experiment on NCI-H23 lung was over 100 µM in each case. Also, the TGI in the experiment on OVCAR-4 ovarian, in the experiment with NCI-H522 lung, in the experiment on UACC-62 melanoma and in the experiment with OVCAR-5 ovarian was over 100 µM each time.
Regarding `CC1=NN(c2cccc(Cl)c2)C(=O)/C1=C\c1cn(CC(O)CN2CCCCC2)c2ccccc12` (stereo not given), the GI50 is 7.75 µM in the experiment with SNB-75 CNS; 2890 nM with HL-60(TB) leukemia; 16.8 µM in the experiment with SNB-19 CNS; 15 µM in the experiment on BT-549 breast; 3.34 µM in the experiment on SK-MEL-5 melanoma; 12.4 µM in the experiment with NCI-H23 lung. The GI50 in the experiment on OVCAR-4 ovarian is 13.3 µM; in the experiment on NCI-H522 lung it was 10.9 µM; with UACC-62 melanoma, 2170 nM; in the experiment with OVCAR-5 ovarian it was 14.6 µM. Further, the TGI amounted to 21.1 µM with SNB-75 CNS; 14.4 µM in the experiment on HL-60(TB) leukemia; 53.7 µM in the experiment on SNB-19 CNS; 29.5 µM in the experiment on BT-549 breast; 10.9 µM in the experiment on SK-MEL-5 melanoma; 32.4 µM in the experiment on NCI-H23 lung. In addition, the TGI in the experiment on OVCAR-4 ovarian was determined as 28.1 µM; in the experiment with NCI-H522 lung, 26.5 µM; in the experiment on UACC-62 melanoma it was 4.9 µM; in the experiment on OVCAR-5 ovarian it was 33.9 µM.
For the molecule `O=C(Nc1n[nH]c2cc(-c3cc(F)ccc3F)ccc12)C1CC1`, the GI50 was over 15.8 µM in the experiment with SNB-75 CNS; 7810 nM in the experiment on HL-60(TB) leukemia; over 25 µM in the experiment on SNB-19 CNS; over 21.7 µM in the experiment with BT-549 breast; 8.09 µM in the experiment on SK-MEL-5 melanoma; 14.2 µM in the experiment with NCI-H23 lung. The GI50 in the experiment on OVCAR-4 ovarian was 13.2 µM; with NCI-H522 lung, 9.15 µM; with UACC-62 melanoma, 19500 nM; in the experiment on OVCAR-5 ovarian, over 22.3 µM. Besides, the TGI in the experiment on SNB-75 CNS, in the experiment on HL-60(TB) leukemia, in the experiment on SNB-19 CNS, with BT-549 breast, in the experiment on SK-MEL-5 melanoma and in the experiment with NCI-H23 lung was over 25 µM each time. Also, the TGI in the experiment with OVCAR-4 ovarian, in the experiment on NCI-H522 lung, in the experiment with UACC-62 melanoma and with OVCAR-5 ovarian was over 25 µM in each case.
